Experimental data taken from patent US8796292B2, “Selective antibacterials for clostridium difficile infections” (GLSynthesis Inc., priority 2009, dated 2014).
Converted amounts (≈) assume the structure as drawn. Structures can show the parent of a compound that is named as a salt. Where two headings read alike, the source gives them in different places.

Experiments:
[1] = test system: C. difficile; experiment: agar dilution MIC assay of anaerobic bacteria; assay type: cell-based, Clostridium difficile
Method: (§1) Each compound was assayed against a panel of anaerobic bacteria in culture, consisting of Gram-positive organisms, such as Lactobacilli, Bifidobacteria, Clostridium spp., and Gram-negative bacteria, such as […] fragilis spp., according to guidelines of the Clinical and Laboratory Standards Institute (CLSI document M11-A7, CLSI, Wayne, Pa., 2007). […] One tenth mL of diluted bacteria containing 500-1000 colony-forming units (CFU) was plated and spread, and the plates incubated at 37° C. for 24-48 hours. MIC (minimum inhibitory concentration) is equivalent to the lowest concentration in μg/ml at which growth, i.e., colony formation, is not observed. […] Bacteria were assayed using a reference agar dilution method. Drug dilutions and drug-supplemented agar plates were prepared manually. The test organisms were maintained frozen at −80° C. The isolates were sub-cultured on Supplemented Brucella Agar (SBA) plates in a Bactron II anaerobic chamber and incubated for 48 hours at 35-36° C. in the Bactron II anaerobe chamber. Following inoculation, the drug-supplemented plates were incubated at 35° C. for 48 hours in the anaerobic environment (5% hydrogen, 5% carbon dioxide, 90% nitrogen) of the Bactron II. The MIC in μg/ml was read per Clinical and Laboratory Standards Institute guidelines.

[2] = test system: Ba. fragilis; experiment: agar dilution MIC assay of anaerobic bacteria; assay type: cell-based; settings: Bacteroides fragilis, B. fragilis, Micromyx Number 0123 (ATCC strain), Table 2
Method: as §1

[3] = test system: C. diff. (ATCC43255); experiment: clindamycin-induced C. diff. infection model in Syrian golden hamsters; assay type: in vivo; settings: 50 mg/kg PO bid for 3 days, n = 6 hamsters
Source text: Compound 359E was given orally as a suspension in 1% carboxymethylcellulose to Syrian Golden hamsters, pretreated subcutaneously with clindamycin and infected orally with C. diff. (ATCC43255) as described in Table 5.

SMILES: O=c1[nH]c(NCc2ccc(Cl)c(Cl)c2)nc2ncn(CCN3CCOCC3)c12 [Compound 362E]
- MIC ([1]; C. diff. Strain no. 18285, Table 4): 4 µg/mL (≈ 9.45 µM)
- MIC ([1]; C. diff. Strain no. 19265, Table 4): 2 µg/mL (≈ 4.72 µM)
- MIC ([1]; C. diff. Strain no. 19273, Table 4): 4 µg/mL (≈ 9.45 µM)
- MIC ([1]; C. diff. Strain no. 19281, Table 4): 2 µg/mL (≈ 4.72 µM)
- MIC ([1]; C. diff. Strain no. 19291, Table 4): 2 µg/mL (≈ 4.72 µM)
- MIC ([1]; C. diff. Strain no. 19369, Table 4): 8 µg/mL (≈ 18.9 µM)
- MIC ([1]; C. diff. Strain no. 19382, Table 4): 2 µg/mL (≈ 4.72 µM)
- MIC ([1]; C. diff. Strain no. 19540, Table 4): 2 µg/mL (≈ 4.72 µM)
- MIC ([1]; C. diff. Strain no. 19580, Table 4): 2 µg/mL (≈ 4.72 µM)
- MIC ([1]; C. diff. Strain no. 19680, Table 4): 2 µg/mL (≈ 4.72 µM)
- MIC ([1]; C. diff. Strain no. 19681, Table 4): 2 µg/mL (≈ 4.72 µM)
- MIC ([1]; C. diff. Strain no. 19683, Table 4): 4 µg/mL (≈ 9.45 µM)
- MIC ([1]; C. diff. Strain no. 19687, Table 4): 4 µg/mL (≈ 9.45 µM)
- MIC ([1]; C. diff. Strain no. 20066, Table 4): 4 µg/mL (≈ 9.45 µM)
- MIC ([1]; C. diff. Strain no. 20152, Table 4): 8 µg/mL (≈ 18.9 µM)
- MIC ([1]; C. diff. Strain no. 20307, Table 4): 2 µg/mL (≈ 4.72 µM)
- MIC ([1]; C. diff. Strain no. 20494, Table 4): 2 µg/mL (≈ 4.72 µM)
- MIC ([1]; C. diff. Strain no. 20680, Table 4): 2 µg/mL (≈ 4.72 µM)
- MIC ([1]; C. diff. Strain no. 20934, Table 4): 1 µg/mL (≈ 2.36 µM)
- MIC ([1]; C. diff. Strain no. 21099, Table 4): 2 µg/mL (≈ 4.72 µM)
- activity against C. diff. strains compared with 359E (in words) ([1]; summary of Table 4): preferred activity against C. diff. strains

SMILES: CCOCCn1cnc2nc(NCc3ccc(Cl)c(Cl)c3)[nH]c(=O)c21 [Compound 325E]
- MIC [2]: > 32 µg/mL
- MIC ([1]; Clostridioides difficile, C. diff., Micromyx Number 3579, Table 2, read-out: MIC): 2 µg/mL (≈ 5.23 µM)
- MIC ([1]; Clostridioides difficile, C. diff., Micromyx Number 3580, Table 2, read-out: MIC): 2 µg/mL (≈ 5.23 µM)
- MIC ([1]; Clostridioides difficile, C. diff., Micromyx Number 3581, Table 2, read-out: MIC): 1 µg/mL (≈ 2.62 µM)
- MIC ([1]; Clostridioides difficile, C. diff., Micromyx Number 3582 (ATCC strain), Table 2, read-out: MIC): 2 µg/mL (≈ 5.23 µM)

SMILES: O=c1[nH]c(NCc2ccc(Cl)c(Cl)c2)nc2ncn(CCCCN3CCOCC3)c12 [Compound 258D, 7-[4-(N-morpholinyl)butyl]-2-(3,4-dichlorobenzylamino)-6-oxopurine]
- MIC ([1]; Clostridioides difficile, C. diff. Strain no. 18285, Table 4, read-out: MIC): 8 µg/mL (≈ 17.7 µM)
- MIC ([1]; Clostridioides difficile, C. diff. Strain no. 19265, Table 4, read-out: MIC): 4 µg/mL (≈ 8.86 µM)
- MIC ([1]; Clostridioides difficile, C. diff. Strain no. 19273, Table 4, read-out: MIC): 8 µg/mL (≈ 17.7 µM)
- MIC ([1]; Clostridioides difficile, C. diff. Strain no. 19281, Table 4, read-out: MIC): 4 µg/mL (≈ 8.86 µM)
- MIC ([1]; Clostridioides difficile, C. diff. Strain no. 19291, Table 4, read-out: MIC): 4 µg/mL (≈ 8.86 µM)
- MIC ([1]; Clostridioides difficile, C. diff. Strain no. 19369, Table 4, read-out: MIC): 16 µg/mL (≈ 35.4 µM)
- MIC ([1]; Clostridioides difficile, C. diff. Strain no. 19382, Table 4, read-out: MIC): 4 µg/mL (≈ 8.86 µM)
- MIC ([1]; Clostridioides difficile, C. diff. Strain no. 19540, Table 4, read-out: MIC): 4 µg/mL (≈ 8.86 µM)
- MIC ([1]; Clostridioides difficile, C. diff. Strain no. 19580, Table 4, read-out: MIC): 2 µg/mL (≈ 4.43 µM)
- MIC ([1]; Clostridioides difficile, C. diff. Strain no. 19680, Table 4, read-out: MIC): 4 µg/mL (≈ 8.86 µM)
- MIC ([1]; Clostridioides difficile, C. diff. Strain no. 19681, Table 4, read-out: MIC): 4 µg/mL (≈ 8.86 µM)
- MIC ([1]; Clostridioides difficile, C. diff. Strain no. 19683, Table 4, read-out: MIC): 8 µg/mL (≈ 17.7 µM)
- MIC ([1]; Clostridioides difficile, C. diff. Strain no. 19687, Table 4, read-out: MIC): 8 µg/mL (≈ 17.7 µM)
- MIC ([1]; Clostridioides difficile, C. diff. Strain no. 20066, Table 4, read-out: MIC): 8 µg/mL (≈ 17.7 µM)
- MIC ([1]; Clostridioides difficile, C. diff. Strain no. 20152, Table 4, read-out: MIC): 16 µg/mL (≈ 35.4 µM)
- MIC ([1]; Clostridioides difficile, C. diff. Strain no. 20307, Table 4, read-out: MIC): 4 µg/mL (≈ 8.86 µM)
- MIC ([1]; Clostridioides difficile, C. diff. Strain no. 20494, Table 4, read-out: MIC): 4 µg/mL (≈ 8.86 µM)
- MIC ([1]; Clostridioides difficile, C. diff. Strain no. 20680, Table 4, read-out: MIC): 4 µg/mL (≈ 8.86 µM)
- MIC ([1]; Clostridioides difficile, C. diff. Strain no. 20934, Table 4, read-out: MIC): 4 µg/mL (≈ 8.86 µM)
- MIC ([1]; Clostridioides difficile, C. diff. Strain no. 21099, Table 4, read-out: MIC): 2 µg/mL (≈ 4.43 µM)

SMILES: CN[C@H](CC(C)C)C(=O)N[C@H]1C(=O)N[C@@H](CC(N)=O)C(=O)N[C@H]2C(=O)N[C@H]3C(=O)N[C@H](C(=O)N[C@H](C(=O)O)c4cc(O)cc(O)c4-c4cc3ccc4O)[C@H](O)c3ccc(c(Cl)c3)Oc3cc2cc(c3O[C@@H]2O[C@H](CO)[C@@H](O)[C@H](O)[C@H]2O[C@H]2C[C@](C)(N)[C@H](O)[C@H](C)O2)Oc2ccc(cc2Cl)[C@H]1O [vancomycin HCl, reference compound]
- % Survivors at 120 hr [3]: 100%
- Survivors at 24 hr [3]: 6
- Survivors at 48 hr [3]: 6
- Survivors at 66 hr [3]: 6
- Survivors at 72 hr [3]: 6
- Survivors at 96 hr [3]: 6
